This assay has as its target T1, 5-HT2 receptors (Rattus norvegicus, UniProt P14842).
T1 construct: essentially as described by Leysen et al. (Mol. Pharmacol. 21, 301-14, 1982) using; from tissue
Nature of the assay: Affinity to 5-HT2 receptors (Test 1, 3H-ketanserin binding). The settings on record: 3H-ketanserin as ligand. The protocol: Test 1. Affinity to 5-HT2 receptors.
The binding assay is carried out essentially as described by Leysen et al. (Mol. Pharmacol. 21, 301-14, 1982) using ^3 H-ketanserin as ligand.

pKi: −log10 of the molar value. Counter-ions that a name gives are not always drawn.

The record followed here is US6326371A, “Pyrudyl and pyrimidylpiperazine derivatives” (Pharmacia Aktiebolag, priority 1992, dated 2001).

T1 sequence (P14842 whole entry): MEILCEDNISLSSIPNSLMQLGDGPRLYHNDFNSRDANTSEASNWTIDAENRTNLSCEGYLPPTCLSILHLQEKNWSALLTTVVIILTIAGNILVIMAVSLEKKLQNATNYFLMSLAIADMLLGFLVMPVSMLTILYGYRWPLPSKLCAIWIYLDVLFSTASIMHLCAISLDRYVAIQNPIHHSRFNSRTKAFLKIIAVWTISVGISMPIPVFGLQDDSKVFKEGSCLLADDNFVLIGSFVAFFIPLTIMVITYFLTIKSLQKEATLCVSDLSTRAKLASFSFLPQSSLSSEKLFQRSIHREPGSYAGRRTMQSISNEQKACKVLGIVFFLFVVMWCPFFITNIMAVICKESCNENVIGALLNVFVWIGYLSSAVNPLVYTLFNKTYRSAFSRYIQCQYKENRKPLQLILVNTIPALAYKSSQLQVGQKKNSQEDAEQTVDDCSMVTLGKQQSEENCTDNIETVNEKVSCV

With `Fc1ccc(N(CCCN2CCN(c3ccccn3)CC2)c2ccc(F)cc2)cc1` [1:1, 1-{3-[Bis-(4-fluorophenyl)amino]propyl}-4-(2-pyridyl)-piperazine-dihydrochloride], the pKi (as a rule, the Ki on a negative log10 scale, so that one unit is a factor of ten) is 7.74.

Turning to `Fc1ccc(C(OCCN2CCN(c3ccccn3)CC2)c2ccc(F)cc2)cc1` [3:1, 4-{2-[(4.4'-Difluorobenzhydryl)oxyl]ethyl}-1-(2-pyridyl)piperazine dihydrochloride], the pKi was 7.96.
